Read-outs that look alike come from different tables or passages of the source.
How the values were obtained:
[1] = system: STZ (streptozotocin)-induced diabetic rats; details: vs vehicle group
Experimental: STZ (streptozotocin)-induced diabetic rats were prepared according to the following procedure. STZ (45 mg/kg) was intravenously administered to rats at the age of 7 weeks. At week 2 after administration of STZ, the blood was collected from the tail vein and the blood glucose level was measured to confirm that the blood glucose level was increased to 300 mg/dl or more. In the administration group, the rats were grouped so as to minimize the variation in the mean values of body weight, blood glucose level and pain response threshold measured on the previous day of the administration of the drug. A non-administration group of STZ was separately prepared and used as Normal group. A test drug was orally administered once daily for 28 consecutive days. Paresthesia due to neuropathy was determined by a von Frey Test (pain threshold test) at two time points, at 1 hour after administration on day 28 and on day 7 of cessation of the drug after the last administration (Pain, vol. 53, pp. 81-88, 1993). The test was initiated after the rats were placed in a cage for observation and acclimated for at least 20 minutes. By using a digital von Frey Test model 2390 (manufactured by IITC Inc.), a tip end was lightly applied to a paw. When there was no response, an applied load was increased from 1 to 3 g. The pain threshold was determined as an applied load (g) at which an avoidance response such as paw withdrawal was observed. In each animal, the measurement was performed twice for each of the left and right paws, and the mean of the 4 values was calculated as a withdrawal threshold (g). The improvement of paresthesia was determined based on the recovery of the withdrawal threshold in a drug administration group as compared with a vehicle (distilled water) administration group. Statistical test was performed between the vehicle administration group and the drug administration groups. For confirming the onset of diabetic neuropathy, a Student's t-test was also performed to compare the vehicle administration group and the Normal group.

[2] = system: fibroblast growth factor 2 (FGF-2); experiment: Quantitative PCR of neurotrophic factor expression, spinal cord lumbar region of STZ-induced diabetic rats; format: in vivo, rat; details: 30 mg/kg
Experimental: (§1) In order to verify whether (+)-2-[(1H-inden-7-yloxy)methyl]morpholine hydrochloride acts on the expression levels of neurotrophic factors, an improving effect of (+)-2-[(inden-7-yloxy)methyl]morpholine hydrochloride on a decrease in the expression levels of neurotrophic factors in the spinal cord and the dorsal root ganglia of STZ-induced diabetic rats was examined.
(§2) The expression levels of neurotrophic factors were measured in the animals on day 7 to 8 of cessation of the drug withdrawal after the repeated daily administration in each of the Normal group, the vehicle administration group (STZ-induced diabetic rats) and the drug administration group at a dose of 30 mg/kg (STZ-induced diabetic rats) in Example 2. The spinal cord lumbar region and the dorsal root ganglia (L4, L5, and L6) were excised and the total RNA was extracted from the excised specimens using an RNA extraction kit RNeasy (Qiagen). […] A quantitative PCR analysis was performed for the obtained cDNA using primers to fibroblast growth factor 2 (FGF-2), insulin-like growth factor 1 (IGF-1), and glyceraldehyde-3-phosphate dehydrogenase (G3PDH) by PRISM 7900 (ABI). […] The improving effect on a decrease in the expression levels of neurotrophic factors were determined based on the recovery on the expression levels of neurotrophic factors in the drug administration group as compared with the vehicle administration group. […]

[3] = system: STZ-induced diabetic rats; experiment: Motor nerve conduction velocity (MNCV) in STZ-induced diabetic rats; format: in vivo, rat; details: 30 mg/kg
Experimental: The measurement was performed using the method of Cameron et al. (The Journal of Experimental Physiology, vol. 74, pp. 917-926, 1989) with some modification.
1 were used. Further, the same test was performed also for the Normal group. The rats were anesthetized with sodium pentobarbital, and the temperature of the rectum was maintained at about 37.5° C. using a body temperature maintenance device for small animals, and then, the MNCV was measured using an evoked potential measurement device. First, a positive stimulating electrode was attached to a dorsal region. […] Then, an average waveform evoked by the stimulation was derived from bipolar recording electrodes inserted into a gastrocnemius muscle region of the hind limb of the same side, and the latency (sec) from the start of stimulation to the first deflection of an M-wave was measured. Thereafter, the tibial nerve around behind the knee was stimulated with a negative stimulating electrode in the same manner as above, and the latency (sec) was measured in the same manner as in the gastrocnemius muscle region. A value obtained by dividing a distance (m) between the two regions stimulated with the negative stimulating electrode by a difference (sec) in the M-wave latency measured in the above two stimulation experiments was determined to be an MNCV value. […]

Cytochrome P-450 (1A2) = target: T1, Cytochrome P-450 (1A2) (Homo sapiens, UniProt P05177); experiment: Test for Cytochrome P-450 (1A2) enzyme inhibition using human liver microsomes; format: in vitro ADME
T1 construct: 0.2 mg protein/mL human liver microsomes; from tissue; host or cells: human liver microsomes
T1 sequence (P05177 1-516): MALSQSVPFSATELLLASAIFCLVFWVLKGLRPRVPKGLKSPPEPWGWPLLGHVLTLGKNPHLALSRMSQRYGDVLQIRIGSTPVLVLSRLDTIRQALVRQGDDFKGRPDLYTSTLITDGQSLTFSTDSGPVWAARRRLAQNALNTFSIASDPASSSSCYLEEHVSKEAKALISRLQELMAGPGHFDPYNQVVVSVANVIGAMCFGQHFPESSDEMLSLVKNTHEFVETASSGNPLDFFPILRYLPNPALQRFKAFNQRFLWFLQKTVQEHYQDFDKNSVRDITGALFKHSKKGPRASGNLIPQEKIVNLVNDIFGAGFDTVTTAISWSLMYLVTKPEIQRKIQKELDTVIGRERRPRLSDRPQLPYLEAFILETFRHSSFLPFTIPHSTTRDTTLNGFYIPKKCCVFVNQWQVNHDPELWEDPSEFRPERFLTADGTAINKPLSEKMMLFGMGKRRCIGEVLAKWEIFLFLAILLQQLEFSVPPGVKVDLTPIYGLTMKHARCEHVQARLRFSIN
Experimental: An experiment was performed according to the method of Rae Yuan et al. (Drug Metabolism and Disposition, 30(12), 1311-1319, 2002).
By using a 96-well plate, a test drug (0.3 to 10 μmol/L) was added to 100 mmol/L Na-K phosphate buffer (pH=7.4) containing 0.1 mmol/L ethylenediaminetetraacetic acid (EDTA), 1 mmol/L nicotinamide adenine dinucleotide phosphate (NADPH), and 0.2 mg protein/mL human liver microsomes, and the total volume was made up to 145 μL, and then, preincubation of the resulting mixture was started at 37° C. At 5 minutes after the start of preincubation, phenacetin (20 mmol/L) was added thereto as a substrate for P450(1A2), and the total volume was made up to 150 μL, and then, the resulting mixture was incubated at 37° C. for 20 minutes. Thereafter, 130 μL of acetonitrile was added to the sample to stop the reaction. For the sample in which the reaction was stopped, the concentration of acetaminophen which is a metabolite of phenacetin was determined using LC/MS/MS.
A production amount of acetaminophen in the absence of the test drug was taken as 100%, and a production amount of acetaminophen in the presence of the test drug was calculated for each concentration of the test drug. Based on the calculated production amount for each concentration of the test drug, a concentration of the test drug at which the production amount of acetaminophen was 50% (IC50 value) was calculated from the following equation. The test was performed for two cases, and a mean value was used for the calculation of each value.
Production amount [I] (%)=100/(1+[I]/IC50)
Production amount [I] (%): (Production amount of acetaminophen when the test compound concentration was [I])/(Production amount of acetaminophen in the absence of test compound)×100

[4] = system: insulin-like growth factor 1 (IGF-1); experiment: Quantitative PCR of neurotrophic factor expression, dorsal root ganglia of STZ-induced diabetic rats; format: in vivo, rat; details: 30 mg/kg
Experimental: as §1, §2

[5] = 30 mg/kg orally once daily for 28 days, measured on day 7 of cessation of drug
[6] = 30 mg/kg orally once daily, day 28 of repeated administration, 1 hour after administration

| CYP inhibitory activity (Cytochrome P-450 (1A2)) | possibility of drug-drug interaction by oral administration (Cytochrome P-450 (1A2); from difference between IC50 and Cmax at oral administration) | IC50 (Cytochrome P-450 (1A2); human liver microsomes, substrate phenacetin, acetaminophen production, mean of two cases) [µM] | Structure (SMILES) | effect on the decrease in the withdrawal threshold (von Frey test) [1, 5] | effect on the decrease in the withdrawal threshold (von Frey test) [1, 6] | effect on the decrease in the expression level of FGF-2 [2] | relative gene expression level of FGF-2 normalized by G3PDH ([2]; p.o., day 7 to 8 of cessation, mean ± SEM, Normal 100.0, Vehicle 66.9) | MNCV ([3]; p.o., day 7 to 8 of drug withdrawal after repeated daily administration, mean ± SEM, Normal 62.4, Vehicle 49.4) [m/s] | improving effect on a decrease in MNCV ([3]; vs vehicle group) | effect on the decrease in the expression level of IGF-1 [4] | relative gene expression level of IGF-1 normalized by G3PDH ([4]; p.o., day 7 to 8 of cessation, mean ± SEM, Normal 100.0, Vehicle 54.6) |
| --- | --- | --- | --- | --- | --- | --- | --- | --- | --- | --- | --- |
| – | – | – | C1=Cc2cccc(OCC3CNCCO3)c2C1.Cl (racemic) [(±)-2-[(inden-7-yloxy)methyl]morpholine hydrochloride] | significantly restored the decrease in the withdrawal threshold | significantly restored the decrease in the withdrawal threshold | – | – | – | – | – | – |
| extremely weak | extremely low | 8.1 | C1=Cc2cccc(OCC3CNCCO3)c2C1.Cl (single isomer, unassigned; (+)) [(+)IDX, (+)-2-[(1H-inden-7-yloxy)methyl]morpholine hydrochloride] | significantly restored the decrease in the withdrawal threshold | significantly restored the decrease in the withdrawal threshold | significantly recovers the decrease in the expression levels | 103.5 ± 4.9 | 53.3 ± 1.1 | significant improving effect | significantly recovers the decrease in the expression levels | 67.7 ± 3.2 |
